According to PubChem BioAssay AID248 (DTP/NCI, 2004):
Several values for one entry are separate records, joined by “and”; a condition that tells them apart may be missing. Equal entries are not always repeated. Inconclusive results and toxic doses are left out. Cut-off read from the data, not from the text of the source: active = T/C of 150% or more; inactive = T/C below 125%.

Test system: L1210 leukemia ip in BDF1 mice, survival T/C
Assay: NCI In Vivo Anticancer Drug Screen. Data for tumor model L1210 Leukemia (intraperitoneal) in B6D2F1 (BDF1) mice
Settings: endpoint: mean survival time, higher = longer survival
In short: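 Tumor cells were implanted, animals were treated, and survival was followed. The result divides the treated measurement by the vehicle-control measurement.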

[1] = dose: 100.0 mg/kg/injection, schedule: Q01DX009 (ip), vehicle: Klucel (hydroxypropylcellulose) (HPC)
[2] = dose: 100.0 mg/kg/injection, schedule: Q04DX003 (ip), vehicle: Klucel (hydroxypropylcellulose) (HPC)
[3] = dose: 200.0 mg/kg/injection, schedule: Q01DX009 (ip), vehicle: Klucel (hydroxypropylcellulose) (HPC)
[4] = dose: 200.0 mg/kg/injection, schedule: Q04DX003 (ip), vehicle: Klucel (hydroxypropylcellulose) (HPC)
[5] = dose: 400.0 mg/kg/injection, schedule: Q01DX009 (ip), vehicle: Klucel (hydroxypropylcellulose) (HPC)
[6] = dose: 400.0 mg/kg/injection, schedule: Q04DX003 (ip), vehicle: Klucel (hydroxypropylcellulose) (HPC)
[7] = dose: 100.0 mg/kg/injection, schedule: Q01DX001 (ip), vehicle: saline with Tween-80
[8] = dose: 200.0 mg/kg/injection, schedule: Q01DX001 (ip), vehicle: saline with Tween-80
[9] = dose: 400.0 mg/kg/injection, schedule: Q01DX001 (ip), vehicle: saline with Tween-80
[10] = dose: 100.0 mg/kg/injection, schedule: Q01DX001 (ip), vehicle: saline
[11] = dose: 200.0 mg/kg/injection, schedule: Q01DX001 (ip), vehicle: saline
[12] = dose: 100.0 mg/kg/injection, schedule: Q04DX003 (ip), vehicle: saline with Tween-80
[13] = dose: 200.0 mg/kg/injection, schedule: Q04DX003 (ip), vehicle: saline with Tween-80
[14] = dose: 400.0 mg/kg/injection, schedule: Q04DX003 (ip), vehicle: saline with Tween-80
[15] = dose: 100.0 mg/kg/injection, schedule: Q01DX001 (ip), vehicle: acetone
[16] = dose: 25.0 mg/kg/injection, schedule: Q04DX002 (ip), vehicle: saline with Tween-80
[17] = dose: 50.0 mg/kg/injection, schedule: Q04DX002 (ip), vehicle: saline with Tween-80
[18] = dose: 100.0 mg/kg/injection, schedule: Q04DX002 (ip), vehicle: Klucel (hydroxypropylcellulose) (HPC)
[19] = dose: 200.0 mg/kg/injection, schedule: Q04DX002 (ip), vehicle: Klucel (hydroxypropylcellulose) (HPC)
[20] = dose: 400.0 mg/kg/injection, schedule: Q04DX002 (ip), vehicle: Klucel (hydroxypropylcellulose) (HPC)

Measured: T/C

O=C(O)c1ccc(Oc2ccc(C(=O)O)cc2)cc1
inactive: [1] 103 % of control | [2] 97 % of control | [3] 109 % of control | [4] 100 % of control | [5] 100 % of control | [6] 105 % of control

C/C(=C\Cl)CN(C)S(=O)(=O)c1ccc(Br)cc1
inactive: [7] 100 % of control and 98 % of control | [1] 94 % of control | [8] 94 % of control and 95 % of control | [3] 89 % of control | [9] 96 % of control and 98 % of control

CC(=O)OCCS(=O)(=O)CCc1ccccc1
inactive: dose: 62.5 mg/kg/injection, schedule: Q01DX009 (ip), vehicle: Klucel (hydroxypropylcellulose) (HPC) 96 % of control | dose: 125.0 mg/kg/injection, schedule: Q01DX009 (ip), vehicle: Klucel (hydroxypropylcellulose) (HPC) 100 % of control | dose: 250.0 mg/kg/injection, schedule: Q01DX009 (ip), vehicle: Klucel (hydroxypropylcellulose) (HPC) 98 % of control

CC(=O)CC(=O)N(N=O)c1ccccc1C
inactive: [10] 104 % of control | [11] 95 % of control

Cn1[nH]c(=O)[nH]c1=O
inactive: dose: 100.0 mg/kg/injection, schedule: Q04DX002 (ip), vehicle: saline 103 % of control | [12] 98 % of control and 87 % of control | dose: 200.0 mg/kg/injection, schedule: Q04DX002 (ip), vehicle: saline 100 % of control | [13] 93 % of control | dose: 400.0 mg/kg/injection, schedule: Q04DX002 (ip), vehicle: saline 103 % of control | [14] 90 % of control

CN1CCCC1c1ccc(Br)cc1 (configuration not stated)
inactive: [15] 95 % of control

CC(C)C(NC(=O)CCNC(=O)OCc1ccccc1)C(=O)OCc1ccccc1 (configuration not stated)
inactive: [12] 93 % of control | [13] 92 % of control | [14] 95 % of control

CN1CCCC1CCCl (configuration not stated)
inactive: dose: 12.5 mg/kg/injection, schedule: Q01DX001 (ip), vehicle: saline 97 % of control | dose: 12.5 mg/kg/injection, schedule: Q04DX003 (ip), vehicle: saline 88 % of control | dose: 25.0 mg/kg/injection, schedule: Q01DX001 (ip), vehicle: saline 100 % of control | dose: 25.0 mg/kg/injection, schedule: Q04DX003 (ip), vehicle: saline 95 % of control | dose: 50.0 mg/kg/injection, schedule: Q01DX001 (ip), vehicle: saline 100 % of control | dose: 50.0 mg/kg/injection, schedule: Q04DX003 (ip), vehicle: saline 95 % of control | dose: 75.0 mg/kg/injection, schedule: Q04DX003 (ip), vehicle: saline 100 % of control

Cc1csc2ncnc(Cl)c12
inactive: [16] 98 % of control | [17] 91 % of control | dose: 100.0 mg/kg/injection, schedule: Q04DX002 (ip), vehicle: saline with Tween-80 94 % of control

CC(=O)n1c(O)c(N=NC(=N)N[N+](=O)[O-])c2ccccc21
inactive: [7] 97 % of control | dose: 132.0 mg/kg/injection, schedule: Q01DX001 (ip), vehicle: saline with Tween-80 101 % of control | [8] 97 % of control | dose: 300.0 mg/kg/injection, schedule: Q01DX001 (ip), vehicle: saline with Tween-80 106 % of control | [9] 101 % of control

NC(=O)c1ccc[n+]([O-])c1
inactive: [1] 104 % of control | [2] 100 % of control | [3] 100 % of control | [4] 100 % of control | [5] 98 % of control | [6] 94 % of control

COC1C(OC(N)=O)C(O)C(Oc2ccc3c(O)c(NC(=O)c4ccc(O)c(CC=C(C)C)c4)c(=O)oc3c2C)OC1(C)C (configuration not stated)
inactive: dose: 50.0 mg/kg/injection, schedule: Q01DX Z (ip), vehicle: saline 91 % of control | dose: 100.0 mg/kg/injection, schedule: Q01DX Z (ip), vehicle: saline 91 % of control | dose: 200.0 mg/kg/injection, schedule: Q01DX Z (ip), vehicle: saline 91 % of control

Cc1cccc(C(=O)OCCBr)c1
inactive: dose: 100.0 mg/kg/injection, schedule: Q04DX003 (ip), vehicle: saline sonified 98 % of control | dose: 200.0 mg/kg/injection, schedule: Q04DX003 (ip), vehicle: saline sonified 104 % of control | dose: 400.0 mg/kg/injection, schedule: Q04DX003 (ip), vehicle: saline sonified 106 % of control

COc1ccc(CCN(CC(=O)O)S(=O)(=O)c2ccc(C)cc2)cc1OC
inactive: [10] 91 % of control | [11] 100 % of control | dose: 400.0 mg/kg/injection, schedule: Q01DX001 (ip), vehicle: saline 100 % of control

Cc1sc(Cc2ccccc2)nc1-c1ccc(N=Cc2ccc(N(CCOS(C)(=O)=O)CCOS(C)(=O)=O)cc2)cc1
inactive: dose: 25.0 mg/kg/injection, schedule: Q04DX003 (ip), vehicle: saline with Tween-80 113 % of control | dose: 50.0 mg/kg/injection, schedule: Q04DX003 (ip), vehicle: saline with Tween-80 123 % of control | [12] 107 % of control and 114 % of control

O=C(Oc1cc(OC(=O)c2ccccc2)cc(OC(=O)c2ccccc2)c1)c1ccccc1
inactive: [1] 95 % of control | [2] 100 % of control | [3] 95 % of control | [4] 100 % of control | [5] 95 % of control | [6] 100 % of control

OC(c1ccccc1)(c1ccccc1)c1ccccc1
inactive: dose: 9.0 mg/kg/injection, schedule: Q01DX015 (ip), vehicle: saline 95 % of control | dose: 18.0 mg/kg/injection, schedule: Q01DX015 (ip), vehicle: saline 101 % of control | dose: 36.0 mg/kg/injection, schedule: Q01DX015 (ip), vehicle: saline 98 % of control | dose: 50.0 mg/kg/injection, schedule: Q04DX002 (ip), vehicle: Klucel (hydroxypropylcellulose) (HPC) 97 % of control | dose: 72.0 mg/kg/injection, schedule: Q01DX015 (ip), vehicle: saline 98 % of control | [18] 95 % of control and 103 % of control | dose: 100.0 mg/kg/injection, schedule: Q04DX002 (ip), vehicle: other 95 % of control | dose: 143.0 mg/kg/injection, schedule: Q01DX015 (ip), vehicle: saline 91 % of control | [19] 94 % of control | dose: 200.0 mg/kg/injection, schedule: Q04DX002 (ip), vehicle: other 95 % of control | dose: 286.0 mg/kg/injection, schedule: Q01DX015 (ip), vehicle: saline 89 % of control | [20] 103 % of control and 88 % of control | dose: 400.0 mg/kg/injection, schedule: Q04DX002 (ip), vehicle: other 92 % of control | dose: 572.0 mg/kg/injection, schedule: Q01DX015 (ip), vehicle: saline 98 % of control

O=C(O)CCCCCN1C(=O)C2CC=CCC2C1=O (configuration not stated)
inactive: dose: 6.0 mg/kg/injection, schedule: Q04DX002 (ip), vehicle: saline with Tween-80 106 % of control | dose: 12.5 mg/kg/injection, schedule: Q04DX002 (ip), vehicle: saline with Tween-80 91 % of control | [16] 98 % of control | [17] 102 % of control

Nc1ncnc2c1ncn2C1OC(CF)C(O)C1O (configuration not stated)
inactive: dose: 50.0 mg/kg/injection, schedule: Q01DX009 (ip), vehicle: saline 101 % of control | dose: 100.0 mg/kg/injection, schedule: Q01DX009 (ip), vehicle: saline 100 % of control | dose: 200.0 mg/kg/injection, schedule: Q01DX009 (ip), vehicle: saline 114 % of control

O=C(O)C(Br)CO (configuration not stated) (tested in a mixture with another compound)
inactive: [15] 93 % of control | dose: 200.0 mg/kg/injection, schedule: Q01DX001 (ip), vehicle: acetone 95 % of control

O=C(Cc1ccccc1)OCC#CC#CCOC(=O)Cc1ccccc1
inactive: [1] 103 % of control | [2] 92 % of control | [3] 98 % of control | [4] 91 % of control | [5] 97 % of control | [6] 92 % of control

COc1ccc(Cl)cc1NC(=O)Nc1cccc(C(C)=O)c1
inactive: [1] 102 % of control | [3] 93 % of control | [5] 90 % of control

O=C(O)c1cc(Br)cc(Br)c1Cl
inactive: [18] 108 % of control | [19] 105 % of control | [20] 97 % of control

CNC(=O)O/N=C/c1ccc([N+](=O)[O-])cc1
inactive: dose: 75.0 mg/kg/injection, schedule: Q01DX001 (ip), vehicle: saline 94 % of control | dose: 150.0 mg/kg/injection, schedule: Q01DX001 (ip), vehicle: saline 100 % of control
